# Test results reported in patent publication US20240018132A1, “5-HYDROXY-1,4-NAPHTHALENEDIONE FOR USE IN THE TREATMENT OF CANCER” (GODAVARI BIOREFINERIES LIMITED, priority 2020, published 2024).
# Several values for one entry are separate records, joined by “and”; a condition that tells them apart may be missing. Equal entries are not always repeated.
# Assays:
# MDAMB231 [1] = assay: In vitro antiproliferative assay (MTT assay), breast cancer cell line; format: cell-based
# Procedure, shortened: (§1)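 Metabolic reduction of MTT served as the growth measure. Plated cells rested 24 h, received compound for 48 h at 37 °C under 5% CO2, then MTT at 0.5 mg/ml for 4 h before DMSO solubilization.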
# PC3 [2] = assay: In vitro antiproliferative assay (MTT assay), prostate cancer cell line; format: cell-based
# Procedure, shortened: as §1
# MCF7 = assay: In vitro antiproliferative assay (MTT assay), MCF7; format: cell-based; details: Homo sapiens, second value of MDAMB231/MCF7 column
# Procedure: MTT assay is a simple and sensitive assay where, metabolic reducing activity of the cells is measured. The increase of this activity in time is taken as a parameter of cell growth. If treatment with a drug impairs this increase, the action is a consequence of growth inhibition, cell killing or both. […] All cell lines were cultured in a 37° C. incubator with a 5% CO2 environment. Compounds were dissolved in DMSO with a concentration of 0.1M (stock solution). Cells were seeded into 96-well plates at suitable plating efficiency.
# In the MTT procedure, the cells were plated in 96 well plates as per predetermined plating efficiency (Table1). The plates were then incubated for 24 hrs in 5% CO2 atmosphere at 37° C. Appropriate concentrations of the drugs were then added to the plate and further incubation was carried out for 48 hrs (in 5% CO2 atmosphere at 37° C.). The assay plate was then centrifuged twice at 3000 rpm for 3 mins and supernatant was then discarded. 100 ul of MTT solution (0.5 mg/ml) was then added to each well of the plate and it was further incubated for 4 hrs (in 5% CO2 atmosphere at 37° C.) Following 4 hr incubation, the plate was then centrifuged twice, and supernatant was aspirated off very carefully. 200 ul of DMSO was then added to each well to solubilize. MTT crystals and mixed well by shaking the plate. […]
# MDAMB231 [3] = assay: Soft agar colony-formation assay, breast cancer; format: cell-based; details: Soft Agar Assay, 1 week, Alamar Blue
# Procedure: (§2) The Soft Agar Colony-formation Assay is an anchorage-independent growth assay in soft agar, which is one of the most stringent assays for detecting malignant transformation of cells. For this assay, malignant cells are cultured with appropriate controls in soft agar medium for 1-2 weeks. Following this incubation period, formed colonies can either be analyzed morphologically using cell stain and quantifying the number of colonies formed.
# (§3) Briefly, for Soft Agar Assay a mixture of 50 ul of 2× medium (taken appropriately as per cell line) and 50 ul of 1.2% Bacto Agar were plated on to each well of 96 well micro titer assay plate. 10 ul of cells (of specific plating efficiency pre standardized for respective cell line) were mixed with 20 ul of 2× medium and 30 ul of 0.8% of Bacto Agar and 1.6 ul of drug (of appropriate concentration) in a vial and transferred to the solidified pre layers of the assay plates. The cells were then allowed to grow and form colonies at 37° C. and 5% CO2 for 1 week. An intermittent feeding with 50 ul of appropriate 2× medium was performed after 3 days of experimental set up. 16 ul of Alamar Blue (1.5 mg/ml) was then added to all the wells to quantify the developed colonies. The plates were incubated for 24 hrs at 37° C. Absorbance was then measured at 630 nm. XY graph of log Percent viability was then plotted against log drug concentration.
# (§4) Following plating efficiencies were standardized for Soft Agar Assay: […]
# PC3 [4] = assay: Soft agar colony-formation assay, prostate cancer; format: cell-based; details: Soft Agar Assay, 1 week, Alamar Blue
# Procedure: as §2, §3, §4
# MDAMB231 [5] = assay: Wound Healing Assay (WHA), breast cancer cell line; format: cell-based; details: IC10 conc. of compound
# Procedure: (§5) Wound Healing Assay (WHA) determines the ability of cancer stem cells to heal the wound formed in a confluent monolayer.
# (§6) Procedure: 0.35×10^6 cells were plated in each well of 6 Tissue Culture well plates. The plate was incubated for 48 hrs at 37° C., 5% CO2. […] IC10 conc. of the respective compound was added into each well. The plates were incubated at 37° C., 5% CO2 and the width of scratch was measured at various time intervals such as 6, 24 and 48 hours. Average of 3 distances were taken for each time point using IS camera Measure. A plot of average width of scratch in micrometer was plotted against the time interval after treatment.
# PC3 [6] = assay: Wound Healing Assay (WHA), prostate cancer cell line; format: cell-based; details: IC10 conc. of compound
# Procedure: as §5, §6
# [7] = system: Aldehyde dehydrogenase (ALDH); assay: Aldehyde Dehydrogenase (ALDH) assay, ELISA kit; format: cell-based; details: MDAMB231, 48 hrs
# From the text: Aldehyde dehydrogenases (ALDH) are a family of enzymes that catalyze the metabolism of exogenous and endogenous aldehydes, preventing the accumulation of potentially reactive and toxic aldehydes and their metabolites. In addition to their role in aldehyde metabolism, ALDH enzymes also play critical roles in other cellular processes such as cell proliferation, differentiation, and survival. ALDH also serves as a marker for certain stem cell populations including hematopoietic stem cells and certain cancer stem cells. ALDH concentration was determined by using ([…] Dx) ELISA kit by following protocol: • 1 Standards (50 μl)/sample (40 μl) were added to the respective wells, (except Blank). • 2. (10 μl) Antibody-Biotin conjugate was then added in each sample well (except Blank). • 3. (50 μl) of Horse Radish Peroxidase (HRP) Conjugate was then added to each well (except Blank). • 4. The plates were incubated for one hour at 37° C. in the incubator. • 5. Wash (4 times with wash buffer) and blot residual buffer by firmly tapping the plate on the absorbent paper. Wipe off any liquid from the bottom of the microtiter wells as any residue can interfere in the reading step. • 6. Add TMB substrate A (50 μl) and then TMB substrate B (50 μl) to each well including Blank as well. • 7. Incubate for 10 mins at 37° C. in dark. • 8. Add (50 μl) stop solution. Wells should turn from blue to yellow. • 9. Read absorbance at 450 nm. • 10 A X-Y graph of concentration vs optical density was plotted. ALDH concentration was calculated by substituting optical density values in the regression analysis equation.
# MDAMB231 [8] = assay: In vitro sphere-forming assay (cancer stem cells), Mammosphere media; details: drug 250 uM; Mammosphere media; 2000 cells/well; n = 6 ± S.D
# Procedure: In Vitro Sphere-forming Assay: Sphere assay measures the ability of cancer stem cells (CSCs) to form spheres in specially designed serum-free medium.
# Mammosphere Media Preparation (For 100 mL): 1 g methyl cellulose autoclaved with magnetic stirrer, 100 ml plain media (MEBM) was added and dissolved under magnetic stirring. After complete dissolution FGF-80 μL, EGF-40 μL, Penstrep-1 mL, Heparin-400 μL was added.
# Procedure—The cells were trypsinised and made into single-cell suspension by passing through cell strainers (100 μl and 40 μl, respectively), The cells were diluted at a concentration of 2000 cells/100 μL and suspended in either Mammosphere (for breast cell lines) or Prostosphere (for prostate cell lines). 100 μL of this suspension was added into each well of 96-well suspension plates and incubated at 37° C., 5% CO2 for 24 hrs. Appropriate concentrations of the drugs (2 μL) were added into respective wells with 100 μL of stem cell culture medium. Plates were incubated at 37° C., 50 CO2 for 72 hrs. After incubation, 2.5 μL of the respective drug concentration and 50 μL of stem cell culture medium were added into each well and the plates were further incubated at 37° C., 50% CO2 for 72 hrs. 3 μL of the respective drug concentration was added with 50 μL of stem cell culture medium again after incubation and plates were reincubated for 72 hrs at 37° C., 50 CO2. Number of primary spheres formed for each concentration were counted. The spheres were converted to 0 viability of spheres compared to untreated (Growth Control with DMSO, GCD).
# [9] = Homo sapiens, MDA-MB-231, MTT assay, MDAMB231
# [10] = Homo sapiens, PC-3, MTT assay, PC3
Compound,IC50 (MDAMB231 [1]; [9]) [nM],IC50 (PC3 [2]; [10]) [nM],IC50 (MCF7) [nM],"IC50 (MDAMB231 [1]; MTT assay, breast cancer MDAMB231, 48 hrs drug incubation) [nM]","IC50 (PC3 [2]; MTT assay, prostate cancer PC3, 48 hrs drug incubation) [nM]",IC50 (MDAMB231 [3]) [nM],IC50 (PC3 [4]) [nM],% inhibition of Wound Healing for Breast Cancer Cell line (MDAMB231) after 48 hrs (MDAMB231 [5]) [%],% inhibition of Wound Healing for Prostate Cancer Cell line (PC3) after 48 hrs (PC3 [6]) [%],% inhibition of ALDH on Breast Cancer Cell line (MDAMB231) after 48 hrs [7] [%],3D sphere count of MDAMB231 (MDAMB231 [8])
O=C1C=C(Oc2ccc(F)c(F)c2)C(=O)c2c(OCCN3CCOCC3)cccc21 [Formula 83],860,721,660,,,,,,,,
"N.N.[Cl][Pt][Cl] [Cisplatin, reference compound]",,,,31000,35900,35200,34400,33.78,25.13,26.45,28(±3) and 26(±3)
O=C1C(Oc2ccc3c(c2)OCO3)=CC(=O)c2c(OCCCCN3CCOCC3)cccc21 [Formula 82],970,582,480,,,,,,,,
